Measured values from patent publication US11071767B2, “Dietary compositions for reducing blood glucose levels and for weight management” (MARMAR INVESTMENT SP. Z O.O., priority 2014, dated 2021).

Key:
male Wistar rats [1] = assay: Glucose tolerance test in rats after single plant extracts (Example 1); format: in vivo, rat
Description: An experiment was conducted on 96 male Wistar rats with mean body weight of 381.2±16.6 g, bred at […] in Olsztyn. Each study group consisted of 12 rats. The animals were kept in individual cages in a ventilated room at a constant temperature of about 22° C., controlled relative humidity of about 60% and appropriate lighting (day/night, 12/12 hours). During the experimental period, the animals were fed a standard laboratory rodent mix. Rats were deprived of food 12 hours prior to the first measurement of blood glucose levels, while constant access to water was maintained. On the day of the experiment, the rats were weighed and fasting blood glucose measurements were taken, via a scalpel incision at the tip of the tail. Next, the animals received aqueous solutions of plant extracts, Acarbose, which served as a positive control (PC) or water, which served as a negative control (NC) at pre-defined quantities via a gastric tube. All the plant extracts were provided by […] Investment in a solution form, and were administered according to the following doses: • white mulberry extract (mulberry): 120 mg per 1 kg body weight • bean extract: 100 mg per 1 kg body weight • green coffee extract (coffee): 20 mg per 1 kg body weight • bitter melon extract (melon): 150 mg per 1 kg body weight • pomelo extract: 100 mg per 1 kg body weight • acarbose preparation: 35 mg per 1 kg body weight • arabinose preparation: 25 mg per 1 kg body weight The extract solutions were prepared so as the amount of liquid administered to a sample animal weighing 350 g was 1 mL. Water was administered to the control group in the same manner/volume. […] Statistical analysis using Student's t-test was performed for proper interpretation of results. Each result obtained for a particular product was compared to the analogous result obtained in the negative control (water) group.

male Wistar rats [2] = assay: Glucose tolerance test (sucrose or starch) in rats after plant extract combinations I-III (Example 2); format: in vivo, rat
Description: Each study group consisted of 10 rats. Rats were kept in individual cages in a ventilated at a constant temperature of about 22° C., controlled relative humidity of about 60% and appropriate lighting (day/night, 12/12 hours). During the experimental period, rats were fed the standard laboratory rodent mix. Rats were deprived of food 12 hours prior to the first measurement of blood glucose levels, while constant access to water was maintained. On the day of the experiment, rats were weighed and fasting blood glucose measurements were taken, via a scalpel incision at the tip of the tail. Next, rats were administered water (negative control), acarbose (positive control) or aqueous solutions of pre-defined combinations of plant extracts, as follows: • acarbose preparation: 35 mg per 1 kg body weight • combination I: white mulberry extract (120 mg per 1 kg body weight)+ bean extract (100 mg per 1 kg body weight)+ green coffee extract (20 mg per 1 kg body weight). • combination II: white mulberry extract (120 mg per 1 kg body weight)+ green coffee extract (20 mg per 1 kg body weight)+ arabinose preparation (25 mg per 1 kg body weight). • combination III: white mulberry extract (120 mg per 1 kg body weight)+ bean extract (100 mg per 1 kg body weight)+ green coffee extract (20 mg per 1 kg body weight)+ arabinose preparation (25 mg per 1 kg body weight). The solutions of the extracts were prepared so that the volume of liquid administered to an animal weighing 350 g was 1 mL. Water was administered to the control group in a similar manner. […] Statistical analysis using Student's t-test was performed for proper interpretation of results. Each result obtained for a particular product was compared to the analogous result obtained in the negative control (water) group. Results are presented in Table 2, below and in FIGS. 5A-5B.

[3] = GLUCOSE load (50% glucose solution), 0 min (fasting)
[4] = STARCH load (40% starch solution), 0 min (fasting)
[5] = SUCROSE load (50% sucrose solution), 0 min (fasting)

| Structure (SMILES) | blood glucose level (male Wistar rats [1]; [3]) | blood glucose level (male Wistar rats [1]; GLUCOSE load, 15 min) | blood glucose level (male Wistar rats [1]; GLUCOSE load, 30 min) | blood glucose level (male Wistar rats [1]; GLUCOSE load, 60 min) | blood glucose level (male Wistar rats [1]; GLUCOSE load, 90 min) | blood glucose level (male Wistar rats [1]; GLUCOSE load, 120 min) | blood glucose level (male Wistar rats [1]; GLUCOSE load, 180 min) | blood glucose level (male Wistar rats [1]; [4]) | blood glucose level (male Wistar rats [1]; STARCH load, 15 min) | blood glucose level (male Wistar rats [1]; STARCH load, 30 min) | blood glucose level (male Wistar rats [1]; STARCH load, 60 min) | blood glucose level (male Wistar rats [1]; STARCH load, 90 min) | blood glucose level (male Wistar rats [1]; STARCH load, 120 min) | blood glucose level (male Wistar rats [1]; STARCH load, 180 min) | blood glucose level (male Wistar rats [1]; [5]) | blood glucose level (male Wistar rats [1]; SUCROSE load, 15 min) | blood glucose level (male Wistar rats [1]; SUCROSE load, 30 min) | blood glucose level (male Wistar rats [1]; SUCROSE load, 60 min) | blood glucose level (male Wistar rats [1]; SUCROSE load, 90 min) | blood glucose level (male Wistar rats [1]; SUCROSE load, 120 min) | also measured |
| --- | --- | --- | --- | --- | --- | --- | --- | --- | --- | --- | --- | --- | --- | --- | --- | --- | --- | --- | --- | --- | --- |
| O=C[C@H](O)[C@@H](O)[C@@H](O)CO [Arabinose, L-Arabinose] | 96.0 ± 3.62 mg/dL | 170.9 ± 19.55 mg/dL | 157.1 ± 20.27 mg/dL | 148.2 ± 18.33 mg/dL | 152.2 ± 11.19 mg/dL | 137.0 ± 8.96 mg/dL | 111.6 ± 14.42 mg/dL | 90.9 ± 5.92 mg/dL | 116.3 ± 8.88 mg/dL | 123.5 ± 12.49 mg/dL | 110.9 ± 7.28 mg/dL | 111.5 ± 4.19 mg/dL | 106.3 ± 6.54 mg/dL | 100.1 ± 6.33 mg/dL | 94.7 ± 7.31 mg/dL | 135.4 ± 14.68 mg/dL | 132.9 ± 15.65 mg/dL | 132.9 ± 9.06 mg/dL | 131.7 ± 7.55 mg/dL | 125.4 ± 6.52 mg/dL | blood glucose level (male Wistar rats [1]; SUCROSE load, 180 min): 123.0 ± 7.25 mg/dL |
| C[C@H]1O[C@H](O[C@H]2[C@H](O)[C@@H](O)[C@@H](O[C@H]3[C@H](O)[C@@H](O)C(O)O[C@@H]3CO)O[C@@H]2CO)[C@H](O)[C@@H](O)[C@@H]1N[C@H]1C=C(CO)[C@@H](O)[C@H](O)[C@H]1O (some centres unmarked) [Acarbose] | 95.6 ± 6.37 mg/dL | 168.9 ± 16.33 mg/dL | 163.3 ± 22.35 mg/dL | 158.0 ± 12.91 mg/dL | 157.6 ± 10.20 mg/dL | 137.7 ± 10.07 mg/dL | 106.8 ± 8.59 mg/dL | 93.5 ± 6.36 mg/dL | 120.0 ± 14.97 mg/dL | 114.9 ± 14.48 mg/dL | 100.1 ± 7.28 mg/dL | 95.5 ± 6.17 mg/dL | 94.6 ± 6.02 mg/dL | 90.0 ± 7.03 mg/dL | 94.2 ± 7.43 mg/dL | 120.0 ± 15.80 mg/dL | 114.9 ± 14.48 mg/dL | 100.1 ± 7.28 mg/dL | 95.5 ± 6.17 mg/dL | 94.6 ± 6.02 mg/dL | blood glucose level (male Wistar rats [1]; SUCROSE load, 180 min): 90.0 ± 6.21 mg/dL; blood glucose level (male Wistar rats [2]; STARCH 40% solution 2 g/kg, 0 min (fasting)): 89.7 ± 6.09 mg/dL; blood glucose level (male Wistar rats [2]; STARCH, 15 min): 105.5 ± 9.74 mg/dL; blood glucose level (male Wistar rats [2]; STARCH, 30 min): 104.6 ± 4.24 mg/dL; blood glucose level (male Wistar rats [2]; STARCH, 60 min): 97.3 ± 7.18 mg/dL; blood glucose level (male Wistar rats [2]; STARCH, 90 min): 98.3 ± 6.09 mg/dL; blood glucose level (male Wistar rats [2]; STARCH, 120 min): 94.8 ± 6.01 mg/dL; blood glucose level (male Wistar rats [2]; STARCH, 180 min): 88.7 ± 4.87 mg/dL; blood glucose level (male Wistar rats [2]; SUCROSE 50% solution 2 g/kg, 0 min (fasting)): 84.7 ± 4.81 mg/dL; blood glucose level (male Wistar rats [2]; SUCROSE, 15 min): 112.2 ± 8.58 mg/dL; blood glucose level (male Wistar rats [2]; SUCROSE, 30 min): 121.1 ± 8.93 mg/dL; blood glucose level (male Wistar rats [2]; SUCROSE, 60 min): 116.0 ± 6.87 mg/dL; blood glucose level (male Wistar rats [2]; SUCROSE, 90 min): 110.2 ± 6.51 mg/dL; blood glucose level (male Wistar rats [2]; SUCROSE, 120 min): 109.0 ± 4.66 mg/dL; blood glucose level (male Wistar rats [2]; SUCROSE, 180 min): 101.1 ± 5.34 mg/dL |
